From patent USRE40086E1, “Method for treating bacterial infection with novel 7-substituted-9-substituted amino 6-demethyl-6-deoxytetracyclines” (Wyeth Holdings Corporation, priority 1991, dated 2008)
Counter-ions that a name gives are not always drawn.

Key:
[1] = tested on: N. gonorrhoeae IL 611 (Sensitive); test: MIC, agar dilution; format: cell-based; conditions: Neisseria gonorrhoeae; N. gonorrhoeae IL 611 (Sensitive); read-out: MIC
[2] = tested on: E. faecalis UBMS 90-6 (tetM); test: MIC, agar dilution; format: cell-based; conditions: Enterococcus faecalis
Enterococcus faecium = test: MIC against clinical isolates (Table V, A and O); format: cell-based; conditions: Enterococcus faecium clinical isolates, (11) tested
Escherichia coli = test: MIC against clinical isolates (Table V, A and O); format: cell-based; conditions: Escherichia coli clinical isolates, (10) tested
Proteus spp. indole+ = test: MIC against clinical isolates (Table V, A and O); format: cell-based; conditions: Proteus spp. indole+ clinical isolates, (9) tested
[3] = tested on: Salmonella cholerasuis (Agricultural); test: MIC vs recent clinical and agricultural isolates (Table V, KK); format: cell-based; conditions: [15] tested
E. coli MC4100 TetB = test: MIC, agar dilution (Table IA); format: cell-based; conditions: unit assumed
E. coli J2175 = test: MIC, agar dilution (Table IA); format: cell-based; conditions: unit assumed
E. coli BAJ9003 = test: MIC, agar dilution (Table IA); format: cell-based; conditions: unit assumed
S. aureus SMITH (sens) = test: In vivo antibacterial evaluation, acute lethal infection in mice; conditions: Intraveneous

Question: What does the source list for `CN(C)c1ccc(O)c2c1C[C@H]1C[C@H]3[C@H](N(C)C)C(O)=C(C(N)=O)C(=O)[C@@]3(O)C(O)=C1C2=O` [Compound O, 7-(Dimethylamino)-6-demethyl-6-deoxytetracycline hydrochloride (minocycline hydrochloride), reference compound]?
Answer: MIC [1]: 0.5 µg/mL; MIC [2]: 8 µg/mL; MIC Range (Enterococcus faecium): <0.015 to 16.00 µg/mL; MIC50 (Enterococcus faecium; read-out: MIC50): 8 µg/mL; MIC90 (Enterococcus faecium; read-out: MIC90): 16 µg/mL; MIC Range (Escherichia coli): 0.12 to 32.00 µg/mL; MIC50 (Escherichia coli; read-out: MIC50): 0.25 µg/mL; MIC90 (Escherichia coli; read-out: MIC90): 16 µg/mL; MIC50 (Proteus spp. indole+; read-out: MIC50): 16 µg/mL; MIC90 (Proteus spp. indole+; read-out: MIC90): > 32 µg/mL

Question: Which results are given for `CN(C)CC(=O)Nc1cc(N(C)C)c2c(c1O)C(=O)C1=C(O)[C@]3(O)C(=O)C(C(N)=O)=C(O)[C@@H](N(C)C)C3CC1C2.Cl.Cl` (stereo partly drawn) [KK, [4S-(4alpha,12aalpha)]-4,7-Bis(dimethylamino)-9-[[(dimethylamino)acetyl]amino]-1,4,4a,5,5a,6,11,12a-octahydro-3,10,12,12a-tetrahydroxy-1,11-dioxo-2-naphthacenecarboxamide dihydrochloride]?
Answer: MIC (range over isolates) [3]: 0.5 to 16 µg/mL; Antibacterial activity (MIC) (E. coli MC4100 TetB): 0.25 µg/mL; Antibacterial activity (MIC) (E. coli J2175): 0.25 µg/mL; Antibacterial activity (MIC) (E. coli BAJ9003): 0.03 µg/mL; ED50 (S. aureus SMITH (sens)): 0.68 mg/kg
